# Source: patent publication US6525001B1, “Substituted pyrimidine and pyridine herbicides” (Mid-American Commercialization Corporation, priority 1997, dated 2003)
# What was measured:
# Test in all cases: Test B pre-/postemergence
# Format in all cases: in vivo
# Design in all cases: key: 0 is no effect; 10 is complete control
# [1] = test system: bedstraw (Galium aparine)
# Summary of the method: (§1)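 Compounds in a surfactant-containing, non-phytotoxic solvent blend are applied to freshly planted seed (preemergence) and, concurrently, to seedlings of 2 to 18 cm at 1–4 leaves (postemergence). Plants stay in the greenhouse twelve to sixteen days and are then scored visually from 0 (no effect) to 10 (complete control).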
# [2] = test system: broadleaf signalgrass (Brachiaria decumbens)
# Summary of the method: as §1
# [3] = test system: cocklebur (Xanthium strumarium)
# Summary of the method: as §1
# [4] = test system: corn (Zea mays)
# Summary of the method: as §1
# [5] = test system: giant foxtail (Setaria faberii)
# Summary of the method: as §1
# [6] = test system: momingglory (Ipomoea hederacea)
# Summary of the method: as §1
# [7] = test system: pigweed (Amaranthus retroflexus)
# Summary of the method: as §1
# [8] = test system: rape (Brassica napus)
# Summary of the method: as §1
# [9] = test system: sugar beet (Beta vulgaris)
# Summary of the method: as §1
# [10] = test system: velvetleaf (Abutilon theophrasti)
# Summary of the method: as §1
# [11] = test system: wheat (Triticum aestivum)
# Summary of the method: as §1
smiles,measurement,setting,value
"Cc1cnc(-c2ccc(C(F)(F)F)cc2)nc1Cc1cccc(C(F)(F)F)c1 [Example 1, 5-methyl-2-[4-(trifluoromethyl)phenyl]-4-[[3-(trifluoromethyl)phenyl]methyl]pyrimidine]","Plant response rating, Bedstraw","[1]; Rate 62 g/ha, Postemergence",9
same,Bedstraw plant response rating,"[1]; Rate 62 g/ha, Preemergence",8
same,"Plant response rating, Bedstraw","[1]; Rate 125 g/ha, Postemergence",9
same,Bedstraw plant response rating,"[1]; Rate 125 g/ha, Preemergence",8
same,"Plant response rating, Bedstraw","[1]; Rate 250 g/ha, Postemergence",9
same,"Plant response rating, Bedstraw","[1]; Rate 250 g/ha, Preemergence",8
same,"Plant response rating, Bedstraw","[1]; Rate 500 g/ha, Postemergence",10
same,"Plant response rating, Bedstraw","[1]; Rate 500 g/ha, Preemergence",9
same,"Plant response rating, B. signalgrass","[2]; Rate 62 g/ha, Postemergence",3
same,B. signalgrass plant response rating,"[2]; Rate 62 g/ha, Preemergence",9
same,"Plant response rating, B. signalgrass","[2]; Rate 125 g/ha, Postemergence",6
same,B. signalgrass plant response rating,"[2]; Rate 125 g/ha, Preemergence",9
same,"Plant response rating, B. signalgrass","[2]; Rate 250 g/ha, Postemergence",8
same,"Plant response rating, B. signalgrass","[2]; Rate 250 g/ha, Preemergence",9
same,"Plant response rating, B. signalgrass","[2]; Rate 500 g/ha, Postemergence",9
same,"Plant response rating, B. signalgrass","[2]; Rate 500 g/ha, Preemergence",9
same,"Plant response rating, Cocklebur","[3]; Rate 62 g/ha, Postemergence",7
same,Cocklebur plant response rating,"[3]; Rate 62 g/ha, Preemergence",2
same,"Plant response rating, Cocklebur","[3]; Rate 125 g/ha, Postemergence",8
same,Cocklebur plant response rating,"[3]; Rate 125 g/ha, Preemergence",2
same,"Plant response rating, Cocklebur","[3]; Rate 250 g/ha, Postemergence",9
same,"Plant response rating, Cocklebur","[3]; Rate 250 g/ha, Preemergence",3
same,"Plant response rating, Cocklebur","[3]; Rate 500 g/ha, Postemergence",10
same,"Plant response rating, Cocklebur","[3]; Rate 500 g/ha, Preemergence",10
same,"Plant response rating, Corn","[4]; Rate 62 g/ha, Postemergence",4
same,Corn plant response rating,"[4]; Rate 62 g/ha, Preemergence",1
same,"Plant response rating, Corn","[4]; Rate 125 g/ha, Postemergence",4
same,Corn plant response rating,"[4]; Rate 125 g/ha, Preemergence",1
same,"Plant response rating, Corn","[4]; Rate 250 g/ha, Postemergence",4
same,"Plant response rating, Corn","[4]; Rate 250 g/ha, Preemergence",2
same,"Plant response rating, Corn","[4]; Rate 500 g/ha, Postemergence",7
same,"Plant response rating, Corn","[4]; Rate 500 g/ha, Preemergence",2
same,"Plant response rating, Giant foxtail","[5]; Rate 62 g/ha, Postemergence",3
same,Giant foxtail plant response rating,"[5]; Rate 62 g/ha, Preemergence",10
same,"Plant response rating, Giant foxtail","[5]; Rate 125 g/ha, Postemergence",7
same,Giant foxtail plant response rating,"[5]; Rate 125 g/ha, Preemergence",10
same,"Plant response rating, Giant foxtail","[5]; Rate 250 g/ha, Postemergence",9
same,"Plant response rating, Giant foxtail","[5]; Rate 250 g/ha, Preemergence",10
same,"Plant response rating, Giant foxtail","[5]; Rate 500 g/ha, Postemergence",9
same,"Plant response rating, Giant foxtail","[5]; Rate 500 g/ha, Preemergence",10
same,"Plant response rating, Morningglory","[6]; Rate 62 g/ha, Postemergence",4
same,Morningglory plant response rating,"[6]; Rate 62 g/ha, Preemergence",10
same,"Plant response rating, Morningglory","[6]; Rate 125 g/ha, Postemergence",8
same,Morningglory plant response rating,"[6]; Rate 125 g/ha, Preemergence",10
same,"Plant response rating, Morningglory","[6]; Rate 250 g/ha, Postemergence",10
same,"Plant response rating, Morningglory","[6]; Rate 250 g/ha, Preemergence",10
same,"Plant response rating, Morningglory","[6]; Rate 500 g/ha, Postemergence",10
same,"Plant response rating, Morningglory","[6]; Rate 500 g/ha, Preemergence",10
same,"Plant response rating, Redroot pigweed","[7]; Rate 62 g/ha, Postemergence",9
same,Redroot pigweed plant response rating,"[7]; Rate 62 g/ha, Preemergence",10
same,"Plant response rating, Redroot pigweed","[7]; Rate 125 g/ha, Postemergence",9
same,Redroot pigweed plant response rating,"[7]; Rate 125 g/ha, Preemergence",10
same,"Plant response rating, Redroot pigweed","[7]; Rate 250 g/ha, Postemergence",10
same,"Plant response rating, Redroot pigweed","[7]; Rate 250 g/ha, Preemergence",10
same,"Plant response rating, Redroot pigweed","[7]; Rate 500 g/ha, Postemergence",10
same,"Plant response rating, Redroot pigweed","[7]; Rate 500 g/ha, Preemergence",10
same,"Plant response rating, Rape","[8]; Rate 62 g/ha, Postemergence",9
same,Rape plant response rating,"[8]; Rate 62 g/ha, Preemergence",10
same,"Plant response rating, Rape","[8]; Rate 125 g/ha, Postemergence",9
same,Rape plant response rating,"[8]; Rate 125 g/ha, Preemergence",10
same,"Plant response rating, Rape","[8]; Rate 250 g/ha, Postemergence",9
same,"Plant response rating, Rape","[8]; Rate 250 g/ha, Preemergence",10
same,"Plant response rating, Rape","[8]; Rate 500 g/ha, Postemergence",9
same,"Plant response rating, Rape","[8]; Rate 500 g/ha, Preemergence",10
same,"Plant response rating, Sugarbeets","[9]; Rate 62 g/ha, Postemergence",10
same,Sugarbeets plant response rating,"[9]; Rate 62 g/ha, Preemergence",10
same,"Plant response rating, Sugarbeets","[9]; Rate 125 g/ha, Postemergence",10
same,Sugarbeets plant response rating,"[9]; Rate 125 g/ha, Preemergence",10
same,"Plant response rating, Sugarbeets","[9]; Rate 250 g/ha, Postemergence",10
same,"Plant response rating, Sugarbeets","[9]; Rate 250 g/ha, Preemergence",10
same,"Plant response rating, Sugarbeets","[9]; Rate 500 g/ha, Postemergence",10
same,"Plant response rating, Sugarbeets","[9]; Rate 500 g/ha, Preemergence",10
same,"Plant response rating, Velvetleaf","[10]; Rate 62 g/ha, Postemergence",7
same,Velvetleaf plant response rating,"[10]; Rate 62 g/ha, Preemergence",6
same,"Plant response rating, Velvetleaf","[10]; Rate 125 g/ha, Postemergence",8
same,Velvetleaf plant response rating,"[10]; Rate 125 g/ha, Preemergence",10
same,"Plant response rating, Velvetleaf","[10]; Rate 250 g/ha, Postemergence",9
same,"Plant response rating, Velvetleaf","[10]; Rate 250 g/ha, Preemergence",10
same,"Plant response rating, Velvetleaf","[10]; Rate 500 g/ha, Postemergence",9
same,"Plant response rating, Velvetleaf","[10]; Rate 500 g/ha, Preemergence",10
same,"Plant response rating, Wheat","[11]; Rate 62 g/ha, Postemergence",2
same,Wheat plant response rating,"[11]; Rate 62 g/ha, Preemergence",1
same,"Plant response rating, Wheat","[11]; Rate 125 g/ha, Postemergence",2
same,Wheat plant response rating,"[11]; Rate 125 g/ha, Preemergence",5
same,"Plant response rating, Wheat","[11]; Rate 250 g/ha, Postemergence",3
same,"Plant response rating, Wheat","[11]; Rate 250 g/ha, Preemergence",8
same,"Plant response rating, Wheat","[11]; Rate 500 g/ha, Postemergence",5
same,"Plant response rating, Wheat","[11]; Rate 500 g/ha, Preemergence",9
